Data on 3 compounds can be found in paper PMC5102573 (Clinical Pharmacology and Therapeutics, 2016).

“And” between values parts separate entries of the source, which are not always exact repeats. Equal entries are not always repeated. Structures can show the parent of a compound that is named as a salt. Where two headings read alike, the source gives them in different places.

The conditions of series [1]: rosuvastatin 10 mg q.d. with metformin 750 mg q.d.; cited from earlier work.
The conditions of series [2]: 5 mg rosuvastatin and 600 mg rifampin; cited from earlier work.
[3] abbreviates: cocktail T1 vs alone, geometric mean ratio.
Where [4] appears, read: cocktail T2 vs alone, geometric mean ratio.
The mark [5] stands for this setting: cocktail T3 vs alone, geometric mean ratio.

As to `CC(C)c1nc(N(C)S(C)(=O)=O)nc(-c2ccc(F)cc2)c1/C=C/[C@@H](O)C[C@@H](O)CC(=O)O` [Rosuvastatin, rosuvastatin], in series [1], the “effect of metformin on AUCτ” value is “did not alter” and the “increase of geometric mean Cmax,ss caused by metformin” value was 23%. Moreover, in series [2], the “increase of plasma AUC0-24 with rifampin” value is on record as 5.2 fold and the “increase of plasma Cmax with rifampin” value is 9.9 fold. Moreover, the “CLR,0-36 in the different treatment periods” value in “Urinary excretion” (alone vs cocktails) is “comparable”. Moreover, the “fe0-36, gMean” value in “Urinary excretion” (analyte given in Test Cocktail 1) was 7.93%. The “fe0-36, gMean” value in the series “Urinary excretion” (drug given alone, fraction excreted in urine 0-36 h) was found to be 5.45%. In addition, the “fe0-36 in cocktails T1, T2, and T3 compared to drug alone” value in the series “Urinary excretion” (in vivo) is on record as “higher”. Also, under setting [3], the “AUC0-tz increase (higher) in cocktail vs drug alone” value is 43.4% and 43%; the “AUC0-∞ increase in cocktail vs drug alone” value (“AUC0-∞ increase in cocktail” for short) worked out at 27.8%; the “Cmax increase (higher) in cocktail vs drug alone” value was 38.6% and 39%. Besides, under setting [4], the “AUC0-tz increase in cocktail vs drug alone” value is 50.9%, the “AUC0-∞ increase in cocktail” value came out at 37.4% and the “Cmax increase in cocktail vs drug alone” value is on record as 37.9%. Moreover, under setting [5], the “AUC0-tz increase in cocktail vs drug alone” value amounted to 45.6%, the “AUC0-∞ increase in cocktail” value worked out at 23.3% and the “Cmax increase in cocktail vs drug alone” value came out at 40.1%. Further, where the note is “test cocktail T1 vs drug alone”, the “AUC0-tz, Ratio T/R (relative bioavailability)” value was 143.39%; the “AUC0-∞, Ratio T/R (relative bioavailability)” value is recorded as 127.83%; the “Cmax, Ratio T/R (relative bioavailability)” value is given as 138.57%. For the same compound, where the note is “test cocktail T2 vs drug alone”, the “AUC0-tz, Ratio T/R (relative bioavailability)” value came to 150.87%; the “AUC0-∞, Ratio T/R (relative bioavailability)” value came to 137.43%; the “Cmax, Ratio T/R (relative bioavailability)” value came out at 137.93%. Where the note is “test cocktail T3 vs drug alone”, the “AUC0-tz, Ratio T/R (relative bioavailability)” value is 145.61%; the “AUC0-∞, Ratio T/R (relative bioavailability)” value turned out to be 123.25%; the “Cmax, Ratio T/R (relative bioavailability)” value is listed as 140.05%.

For `C[C@H]1O[C@@H](O[C@H]2[C@@H](O)C[C@H](O[C@H]3[C@@H](O)C[C@H](O[C@H]4CC[C@@]5(C)[C@H](CC[C@@H]6[C@@H]5C[C@@H](O)[C@]5(C)[C@@H](C7=CC(=O)OC7)CC[C@]65O)C4)O[C@@H]3C)O[C@@H]2C)C[C@H](O)[C@@H]1O` [Digoxin, digoxin], in the series “Urinary excretion” (alone vs cocktails), the “urinary excretion parameters fe0-36 and CLR,0-36 between the treatments” value was “comparable”. Also, under “T3 vs T1”, the “AUC0-tz decrease, cocktail T3 vs cocktail T1” value came out at 22.6% and the “Cmax decrease, cocktail T3 vs cocktail T1” value was 12.2%. The median tmax (after all treatments (alone and cocktails)) worked out at 1.0 h. Further, under “cocktail T3 vs alone (R)”, the “AUC0-tz decrease in cocktail vs drug alone” value worked out at 17%; the “Cmax decrease in cocktail vs drug alone” value was 11.4% and 11%.

For the compound `CN(C)C(=N)N=C(N)N` [Metformin, metformin hydrochloride], in “Urinary excretion” (cocktails T1 and T3 vs alone), the “CLR,0-24 decrease in cocktails vs drug alone” value is reported as 10–18% and the “fe0-36 decrease in cocktails vs drug alone” value is recorded as 10–18%.
